ChEMBL document CHEMBL1201862, “PubChem BioAssay data set” (2004)
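Results reflect a 48-hour exposure of cells in 96-well plates to compound at five concentrations. GI50 marks 50% less growth.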 Activity calls are given as the source filed them. Rule as the data show it: active = GI50 up to about 1.1 µM and inactive = higher.

What was measured:
Test in all cases: inhibition of tumour cell growth, NCI panel, 48 h
BT-549 = tested on: BT-549
UACC-62 = tested on: UACC-62
HCT-15 = tested on: HCT-15
SF-268 = tested on: SF-268
COLO 205 = tested on: COLO 205
DU-145 = tested on: DU-145
NCI-H522 = tested on: NCI-H522
CAKI-1 = tested on: CAKI-1
CCRF-CEM = tested on: CCRF-CEM
786-0 = tested on: 786-0
MCF7 = tested on: MCF7
HCT-116 = tested on: HCT-116
OVCAR-5 = tested on: OVCAR-5
EKVX = tested on: EKVX
M14 = tested on: M14
HL-60 = tested on: HL-60
HT-29 = tested on: HT-29
HOP-92 = tested on: HOP-92
T47D = tested on: T47D
HCC 2998 = tested on: HCC 2998

SMILES	GI50 (BT-549)	GI50 (UACC-62)	GI50 (HCT-15)	GI50 (SF-268)	GI50 (COLO 205)	GI50 (DU-145)	GI50 (NCI-H522)	GI50 (CAKI-1)	GI50 (CCRF-CEM)	GI50 (786-0)	GI50 (MCF7)	GI50 (HCT-116)	GI50 (OVCAR-5)	GI50 (EKVX)	GI50 (M14)	GI50 (HL-60)	GI50 (HT-29)	GI50 (HOP-92)	GI50 (T47D)	GI50 (HCC 2998)
CC1OC(OC2C[C@](O)(C(=O)CF)Cc3c(O)c4c(c(O)c32)C(=O)c2ccccc2C4=O)CC(N)C1O (some centres not stated)	0.131 µM (active)	< 0.0104 µM (active)	0.0588 µM	0.0255 µM (active)	0.0296 µM (active)	< 0.01 µM (active)	0.0202 µM (active)	< 0.01 µM (active)	< 10 nM (active)	< 0.01 µM (active)	< 0.01 µM (active)	< 0.01 µM (active)	0.0719 µM (active)	0.507 µM (active)	0.0263 µM (active)	< 0.01 µM (active)	< 0.0156 µM (active)	0.0483 µM (active)	0.0106 µM (active)	0.163 µM (active)
CC1=C(C(=O)NCC(C)O)CC(C(=O)NCC(C)O)=C(C)N1 (configuration not stated)	> 100 µM (inactive)	> 100 µM (inactive)	> 100 µM	> 100 µM (inactive)	> 100 µM (inactive)	> 100 µM (inactive)	> 100 µM (inactive)	> 100 µM (inactive)	> 100000 nM (inactive)	> 100 µM (inactive)	> 100 µM (inactive)	> 100 µM (inactive)	> 100 µM (inactive)	> 100 µM (inactive)	> 100 µM (inactive)	> 100 µM (inactive)	> 100 µM (inactive)	> 100 µM (inactive)	> 100 µM (inactive)	> 100 µM (inactive)
N=C(N)N/N=C/c1c(-c2ccc(Cl)cc2)nc2n1CCS2	14.5 µM (inactive)	11.9 µM (inactive)	14.3 µM	11.5 µM (inactive)	4.38 µM (inactive)	12.8 µM (inactive)	12.8 µM (inactive)	14.8 µM (inactive)	2430 nM (inactive)	4.31 µM (inactive)	11.5 µM (inactive)	4.25 µM (inactive)	15.1 µM (inactive)	16.6 µM (inactive)	2.94 µM (inactive)	31.1 µM (inactive)	8.87 µM (inactive)	10.7 µM (inactive)	13.6 µM (inactive)	3.04 µM (inactive)
COc1cccc(C2ON=C(c3ccccc3)N2C23CC4CC(CC(C4)C2)C3)c1 (configuration not stated)	> 10 µM (inactive)	> 10 µM (inactive)	> 10 µM	> 10 µM (inactive)	> 10 µM (inactive)	> 10 µM (inactive)	> 10 µM (inactive)	> 10 µM (inactive)	> 10000 nM (inactive)	> 10 µM (inactive)	> 10 µM (inactive)	> 10 µM (inactive)	> 10 µM (inactive)	> 10 µM (inactive)	> 10 µM (inactive)	5.09 µM (inactive)	> 10 µM (inactive)	> 10 µM (inactive)	> 10 µM (inactive)	> 10 µM (inactive)
Cc1cccc(C(C)(C)C)c1NC(=O)C(C#N)C1=C(Cl)C(=O)c2ccccc2C1=O (configuration not stated)	14.3 µM (inactive)	18.2 µM (inactive)		17.1 µM (inactive)	17.5 µM (inactive)	22 µM (inactive)	13.8 µM (inactive)	16.7 µM (inactive)	843 nM (active)	16.2 µM (inactive)	15.8 µM (inactive)	14.1 µM (inactive)	17.9 µM (inactive)	12.5 µM (inactive)	18 µM (inactive)	2.03 µM (inactive)	20.8 µM (inactive)	3.93 µM (inactive)	9.95 µM (inactive)	15.7 µM (inactive)
Cc1cc2c(c3oc(C4(C)OC4C4OC4C)cc(=O)c13)C(=O)c1c(O)c(C3CC(C)(N(C)C)C(O)C(C)O3)cc(C3CC(N(C)C)C(O)C(C)O3)c1C2=O (configuration not stated)	0.00011 µM (active)	6.43e-05 µM (active)		2.5e-05 µM (active)	9.53e-05 µM (active)	6.85e-05 µM (active)	0.00275 µM (active)	5.46e-05 µM (active)	2.5 nM (active)	0.000129 µM (active)	2.49e-05 µM (active)	1.54e-05 µM (active)	8.95e-05 µM (active)		8.26e-05 µM (active)	0.0025 µM (active)	0.000175 µM (active)	0.000733 µM (active)	0.00018 µM (active)	0.00014 µM (active)
